Reference: US9328083B2, “2-aminated methylene or 2-esterified methylene tanshinone derivatives, and preparation method and application thereof” (HANGZHOU BENSHENG PHARMACEUTICAL CO., LTD., priority 2011, dated 2016)
≈ marks a conversion by molar mass, not a printed value.

How the values were obtained:
[1] = system: RPMI8226 (multiple myeloma); experiment: MTT growth inhibition of multiple myeloma cells, 72 h; type: cell-based, human; conditions: Homo sapiens, RPMI 8226, 72 h; for IC50: read-out: IC50; for IC90: read-out: IC90
Outline: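 RPMI8226 myeloma cells, 6000 per well in 1640 medium with 10% FBS, exposed to compounds at a range of concentrations (diluted from 10 mg/mL DMSO stock) for 72 h at 37° C, 5% CO2. Viable cells then determined by MTT.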

[2] = system: PC-3 (prostate cancer); experiment: MTT growth inhibition of human solid tumor cells, 72 h; type: cell-based; conditions: Homo sapiens, PC-3, 72 h; for IC50: read-out: IC50; for IC90: read-out: IC90
Outline: (§1)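 Tanshinone I and its aminated or esterified methylene derivatives were tested on cells grown in 10% FBS high-glucose DMEM, seeded at 4000 per well and incubated at 37° C with 5% CO2 for 24 h before treatment.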

[3] = system: Hep G2 (human liver cancer cell); experiment: as above; type: cell-based; conditions: Homo sapiens, HepG2, Hep G2, 72 h; for IC50: read-out: IC50; for IC90: read-out: IC90
Outline: as §1

[4] = system: CNE (nasopharyngeal carcinoma cell); experiment: as above; type: cell-based; conditions: Homo sapiens; for IC50: read-out: IC50; for IC90: read-out: IC90
Outline: as §1

[5] = system: PANC-1 (pancreatic cancer); experiment: as above; type: cell-based; conditions: Homo sapiens, PANC-1, 72 h; for IC50: read-out: IC50; for IC90: read-out: IC90
Outline: as §1

[6] = system: Hela (human cervical cancer cell); experiment: as above; type: cell-based; conditions: Homo sapiens, HeLa, 72 h; for IC50: read-out: IC50; for IC90: read-out: IC90
Outline: as §1

[7] = system: A549 (human lung cancer); experiment: as above; type: cell-based; conditions: Homo sapiens, A549, 72 h; for IC50: read-out: IC50; for IC90: read-out: IC90
Outline: as §1

[8] = system: U87 MG (malignant glioma cell); experiment: as above; type: cell-based; conditions: Homo sapiens, U-87 MG, U87-MG, 72 h; for IC50: read-out: IC50; for IC90: read-out: IC90
Outline: as §1

[9] = system: MGC 803 (human gastric cancer cell); experiment: as above; type: cell-based; conditions: Homo sapiens, MGC-803, 72 h; for IC50: read-out: IC50; for IC90: read-out: IC90
Outline: as §1

[10] = system: RKO (human colon adenocarcinoma cell); experiment: as above; type: cell-based; conditions: Homo sapiens; for IC50: read-out: IC50; for IC90: read-out: IC90
Outline: as §1

[11] = system: Becap37 (human breast cancer cell); experiment: as above; type: cell-based; conditions: Homo sapiens, Becap-37, 72 h; for IC50: read-out: IC50; for IC90: read-out: IC90
Outline: as §1

[12] = system: Hep-2 (laryngeal carcinoma); experiment: as above; type: cell-based; conditions: Homo sapiens, HEp-2, 72 h; for IC50: read-out: IC50; for IC90: read-out: IC90
Outline: as §1

[13] = system: SK-OV-3 (ovarian cancer cell); experiment: as above; type: cell-based; conditions: Homo sapiens, SK-OV-3, 72 h; for IC50: read-out: IC50; for IC90: read-out: IC90
Outline: as §1

[14] = system: MG63 (osteosarcoma); experiment: as above; type: cell-based; conditions: Homo sapiens, MG-63, 72 h; for IC50: read-out: IC50; for IC90: read-out: IC90
Outline: as §1

[15] = system: CaES-17 (esophageal cancer cell); experiment: as above; type: cell-based; conditions: Homo sapiens, CaEs17, CaEs-17, 72 h; for IC50: read-out: IC50; for IC90: read-out: IC90
Outline: as §1

[16] = system: Jurkat (acute lymphoblastic leukemia, ALL); experiment: MTT growth inhibition of leukemia cells, 72 h; type: cell-based, human; conditions: Homo sapiens, 72 h; for IC50: read-out: IC50; for IC90: read-out: IC90
Outline: (§2)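 Viable cell concentration is determined by MTT after 72 h exposure at 37 °C in 5% CO2. Cells (6000 per well) grow in RPMI-1640 containing 10% fetal bovine serum, and graded compound concentrations are added one day after seeding.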

[17] = system: K562/adr (drug-resistant, chronic myeloid leukemia, CML); experiment: MTT growth inhibition of leukemia cells, 72 h; type: cell-based, human; conditions: Homo sapiens, K562/Adr; for IC50: read-out: IC50; for IC90: read-out: IC90
Outline: as §2

[18] = system: H9 (acute lymphoblastic leukemia, ALL); experiment: MTT growth inhibition of leukemia cells, 72 h; type: cell-based, human; conditions: Homo sapiens, H9, 72 h; for IC50: read-out: IC50; for IC90: read-out: IC90
Outline: as §2

[19] = system: Kasumi-1 (acute myeloid leukemia M2 type, AML-M2); experiment: MTT growth inhibition of leukemia cells, 72 h; type: cell-based, human; conditions: Homo sapiens, Kasumi-1, 72 h; for IC50: read-out: IC50; for IC90: read-out: IC90
Outline: as §2

[20] = system: NB4 (acute promyelocytic leukemia, AML); experiment: MTT growth inhibition of leukemia cells, 72 h; type: cell-based, human; conditions: Homo sapiens, NB4, 72 h; for IC50: read-out: IC50; for IC90: read-out: IC90
Outline: as §2

| Structure (SMILES) | IC50 [1] | IC90 [1] | IC50 [2] | IC90 [2] | IC50 [3] | IC90 [3] | IC50 [4] | IC90 [4] | IC50 [5] | IC90 [5] | IC50 [6] | IC90 [6] | IC50 [7] | IC90 [7] | IC50 [8] | IC90 [8] | IC50 [9] | IC90 [9] | IC50 [10] | IC90 [10] | further results |
| --- | --- | --- | --- | --- | --- | --- | --- | --- | --- | --- | --- | --- | --- | --- | --- | --- | --- | --- | --- | --- | --- |
| C#CCNCc1oc2c(c1C)C(=O)C(=O)c1c-2ccc2c(C)cccc12 [BS-TA-B21] | 5.78 µg/mL (≈ 16.8 µM) | 10.5 µg/mL (≈ 30.5 µM) | 7.3 µg/mL (≈ 21.3 µM) | 15.1 µg/mL (≈ 44 µM) | 7.3 µg/mL (≈ 21.3 µM) | 25.8 µg/mL (≈ 75 µM) | 5.99 µg/mL (≈ 17.4 µM) | 79 µg/mL (≈ 230 µM) | 1.14 µg/mL (≈ 3.32 µM) | 7.28 µg/mL (≈ 21.2 µM) | 3.3 µg/mL (≈ 9.61 µM) | 7.9 µg/mL (≈ 23 µM) | 1.8 µg/mL (≈ 5.24 µM) | 10 µg/mL (≈ 29.1 µM) | 6.79 µg/mL (≈ 19.8 µM) | 21.3 µg/mL (≈ 62.1 µM) | 7.01 µg/mL (≈ 20.4 µM) | 17.3 µg/mL (≈ 50.4 µM) | 2.46 µg/mL (≈ 7.16 µM) | 27.9 µg/mL (≈ 81.1 µM) | IC50 [11]: 6.73 µg/mL (≈ 19.6 µM); IC90 [11]: 15.1 µg/mL (≈ 43.9 µM); IC50 [12]: 5.16 µg/mL (≈ 15 µM); IC90 [12]: 23.7 µg/mL (≈ 69 µM); IC50 [13]: > 16 µg/mL; IC90 [13]: > 16 µg/mL; IC50 [14]: 4.68 µg/mL (≈ 13.6 µM); IC90 [14]: 15.3 µg/mL (≈ 44.6 µM); IC50 [15]: 8.71 µg/mL (≈ 25.4 µM); IC90 [15]: 14.2 µg/mL (≈ 41.5 µM); IC50 [16]: 3.41 µg/mL (≈ 9.93 µM); IC90 [16]: 9.55 µg/mL (≈ 27.8 µM); IC50 [17]: 1.3 µg/mL (≈ 3.79 µM); IC90 [17]: 2.73 µg/mL (≈ 7.95 µM); IC50 [18]: 2.2 µg/mL (≈ 6.41 µM); IC90 [18]: 5.9 µg/mL (≈ 17.2 µM); IC50 [19]: 0.83 µg/mL (≈ 2.42 µM); IC90 [19]: 1.8 µg/mL (≈ 5.24 µM); IC50 [20]: 1.53 µg/mL (≈ 4.46 µM); IC90 [20]: 5.46 µg/mL (≈ 15.9 µM) |
| COC(=O)/C=C/C(=O)OCCN(C)Cc1oc2c(c1C)C(=O)C(=O)c1c-2ccc2c(C)cccc12 [BS-TA-74] | 0.45 µg/mL (≈ 0.946 µM) | 1.78 µg/mL (≈ 3.74 µM) | 1.71 µg/mL (≈ 3.6 µM) | 8.19 µg/mL (≈ 17.2 µM) | 1.35 µg/mL (≈ 2.84 µM) | 5.26 µg/mL (≈ 11.1 µM) | 1.39 µg/mL (≈ 2.92 µM) | 2.91 µg/mL (≈ 6.12 µM) | 0.87 µg/mL (≈ 1.83 µM) | 11.1 µg/mL (≈ 23.3 µM) | 1.15 µg/mL (≈ 2.42 µM) | 3.59 µg/mL (≈ 7.55 µM) | 1.79 µg/mL (≈ 3.76 µM) | 6.05 µg/mL (≈ 12.7 µM) | 0.86 µg/mL (≈ 1.81 µM) | 1.83 µg/mL (≈ 3.85 µM) | 0.8 µg/mL (≈ 1.68 µM) | 3.87 µg/mL (≈ 8.14 µM) | 0.28 µg/mL (≈ 0.589 µM) | 2.88 µg/mL (≈ 6.06 µM) | IC50 [11]: 0.85 µg/mL (≈ 1.79 µM); IC90 [11]: 1.81 µg/mL (≈ 3.81 µM); IC50 [12]: 1.28 µg/mL (≈ 2.69 µM); IC90 [12]: 3.67 µg/mL (≈ 7.72 µM); IC50 [13]: 3.96 µg/mL (≈ 8.33 µM); IC90 [13]: 7.99 µg/mL (≈ 16.8 µM); IC50 [14]: 1.02 µg/mL (≈ 2.15 µM); IC90 [14]: 3.26 µg/mL (≈ 6.86 µM); IC50 [15]: 1.09 µg/mL (≈ 2.29 µM); IC90 [15]: 1.86 µg/mL (≈ 3.91 µM); IC50 [16]: 0.96 µg/mL (≈ 2.02 µM); IC90 [16]: 1.86 µg/mL (≈ 3.91 µM); IC50 [17]: 0.8 µg/mL (≈ 1.68 µM); IC90 [17]: 1.8 µg/mL (≈ 3.79 µM); IC50 [18]: 0.25 µg/mL (≈ 0.526 µM); IC90 [18]: 1.49 µg/mL (≈ 3.13 µM); IC50 [19]: 0.26 µg/mL (≈ 0.547 µM); IC90 [19]: 1.57 µg/mL (≈ 3.3 µM); IC50 [20]: 0.19 µg/mL (≈ 0.4 µM); IC90 [20]: 0.49 µg/mL (≈ 1.03 µM) |
